In publication PMC9609098, “Xanthine Oxidase Inhibitory Activity and Chemical Composition of Pistacia chinensis Leaf Essential Oil” (Pharmaceutics, 2022):
≈ marks a conversion by molar mass, not a printed value. Where two headings read alike, the source gives them in different places.

Experiments:
xanthine oxidase [1] = molecular target: T1, xanthine oxidase (Homo sapiens, UniProt P47989); conditions: cited from earlier work
xanthine oxidase [2] = molecular target: T1, xanthine oxidase; test: Enzyme kinetic study (Lineweaver–Burk plot); conditions: for Inhibition type on xanthine oxidase: both substrates, hypoxanthine and xanthine
[3] = molecular target: xanthine oxidase (EC 1.1.3.22) (Homo sapiens, UniProt P47989); test: biochemical; format: biochemical; conditions: for IC50: read-out: IC50 against xanthine oxidase (converted)
xanthine oxidase (EC 1.1.3.22), sequence (P47989 whole entry, species assumed): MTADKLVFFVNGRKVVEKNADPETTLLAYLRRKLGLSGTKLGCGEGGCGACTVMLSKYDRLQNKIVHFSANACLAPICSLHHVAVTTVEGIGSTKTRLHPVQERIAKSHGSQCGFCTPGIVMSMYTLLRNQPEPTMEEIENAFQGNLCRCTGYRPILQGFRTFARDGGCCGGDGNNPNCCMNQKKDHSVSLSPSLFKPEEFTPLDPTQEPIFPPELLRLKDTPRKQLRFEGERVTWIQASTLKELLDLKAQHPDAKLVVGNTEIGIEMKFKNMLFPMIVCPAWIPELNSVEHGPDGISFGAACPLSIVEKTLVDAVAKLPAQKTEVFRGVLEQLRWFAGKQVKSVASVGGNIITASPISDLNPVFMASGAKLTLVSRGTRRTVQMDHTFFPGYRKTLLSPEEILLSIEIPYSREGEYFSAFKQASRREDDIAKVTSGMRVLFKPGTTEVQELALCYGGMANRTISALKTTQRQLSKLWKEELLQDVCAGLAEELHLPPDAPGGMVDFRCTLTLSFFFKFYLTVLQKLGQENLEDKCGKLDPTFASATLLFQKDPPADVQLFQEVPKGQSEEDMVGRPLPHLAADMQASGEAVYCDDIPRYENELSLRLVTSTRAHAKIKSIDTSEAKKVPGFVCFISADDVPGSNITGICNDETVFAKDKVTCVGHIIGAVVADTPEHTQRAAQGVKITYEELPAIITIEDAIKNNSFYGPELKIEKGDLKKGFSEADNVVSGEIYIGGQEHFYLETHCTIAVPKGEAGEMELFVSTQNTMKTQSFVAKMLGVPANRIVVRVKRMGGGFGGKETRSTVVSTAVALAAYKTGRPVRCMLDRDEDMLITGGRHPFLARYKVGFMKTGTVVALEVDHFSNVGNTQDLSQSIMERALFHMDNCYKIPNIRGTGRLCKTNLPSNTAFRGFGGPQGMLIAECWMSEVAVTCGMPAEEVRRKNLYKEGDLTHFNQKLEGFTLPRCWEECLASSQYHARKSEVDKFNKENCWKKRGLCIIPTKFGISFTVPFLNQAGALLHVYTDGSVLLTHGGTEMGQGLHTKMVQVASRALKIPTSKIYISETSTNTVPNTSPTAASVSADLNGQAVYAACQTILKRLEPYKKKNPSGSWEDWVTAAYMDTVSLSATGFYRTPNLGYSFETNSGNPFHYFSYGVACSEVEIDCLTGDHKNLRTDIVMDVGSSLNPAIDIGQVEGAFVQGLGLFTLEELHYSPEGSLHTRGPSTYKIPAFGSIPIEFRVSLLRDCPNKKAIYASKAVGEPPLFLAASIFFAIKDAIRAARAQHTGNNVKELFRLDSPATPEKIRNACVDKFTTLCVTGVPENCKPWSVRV
Method: Xanthine oxidase inhibitory activity of specimens was evaluated by using in vitro spectrophotometric analysis. Both hypoxanthine and xanthine were used as the substrate in the assay, respectively. We added 117 µL of potassium phosphate buffer (50 mM, pH 7.8), 3 µL of specimen solution, and 60 µL of 0.025 unit/mL xanthine oxidase (EC 1.1.3.22) and mixed well in a 96-well microplate, and the mixture was incubated for 10 min at room temperature (25 °C). We added 100 µL of 0.15 mM substrate (hypoxanthine/xanthine) into the well, and the solution was incubated in the dark for 30 min at 37 °C. Then, 20 µL of 1 N HCl was added to stop the reaction. Absorbance at 290 nm of each well was measured using an ELISA (enzyme-linked immunosorbent assay) microplate reader (SPECTROstar Nano, BMG LABTECH, Offenburg, Germany) after incubation. […] All the experiments were performed in triplicate. Inhibition of the xanthine oxidase inhibitory activity was determined by the following formula: Inhibition (%) = [(Acontrol − Acontrol’s blank) − (Asample − Asample’s blank)/(Acontrol − Acontrol’s blank)] × 100. The IC50, half maximal inhibitory concentration, was calculated from the concentration-response curve of the specimen.

xanthine oxidase [4] = molecular target: T1, xanthine oxidase; conditions: cited from earlier work; remark: listed apart in the source
[5] = Hypoxanthine as the substrate, read-out: IC50 xanthine oxidase inhibition (converted)

T1 sequence (P47989 whole entry, species assumed): as above

Structure (SMILES): O=P(O)(O)O[C@H]1[C@H](OP(=O)(O)O)[C@@H](OP(=O)(O)O)[C@H](OP(=O)(O)O)[C@@H](OP(=O)(O)O)[C@H]1OP(=O)(O)O [phytic acid]
- IC50 (xanthine oxidase [1]; Xanthine as the substrate, read-out: IC50 (inhibition of the formation of uric acid)): ~30000 µM

Structure (SMILES): C=C(C)[C@H]1CC=C(C)CC1 [Limonene, limonene]
- Inhibition Type (xanthine oxidase [2]; Hypoxanthine as the substrate): Mixed
- Vmax (xanthine oxidase [2]; Hypoxanthine substrate, inhibitor 40 μg/mL): 0.00027
- Vmax (xanthine oxidase [2]; Hypoxanthine substrate, inhibitor 50 μg/mL): 0.00025
- Vmax (xanthine oxidase [2]; Hypoxanthine substrate, inhibitor 100 μg/mL): 0.00024
- Vmax (xanthine oxidase [2]; Hypoxanthine substrate, inhibitor 200 μg/mL): 0.00023
- Inhibition Type (xanthine oxidase [2]; Xanthine as the substrate): Mixed
- Vmax (xanthine oxidase [2]; Xanthine substrate, inhibitor 40 μg/mL): 0.00029
- Vmax (xanthine oxidase [2]; Xanthine substrate, inhibitor 50 μg/mL): 0.00026
- Vmax (xanthine oxidase [2]; Xanthine substrate, inhibitor 100 μg/mL): 0.00022
- Vmax (xanthine oxidase [2]; Xanthine substrate, inhibitor 200 μg/mL): 0.0002
- Inhibition type on xanthine oxidase (xanthine oxidase [2]): mixed-type inhibitor
- IC50 against xanthine oxidase ([3]; Hypoxanthine as the substrate): 37.69 ± 2.52 µg/mL (≈ 277 µM)
- IC50 ([3]; Hypoxanthine as the substrate): 280 µM
- IC50 against xanthine oxidase ([3]; Xanthine as the substrate): 48.04 ± 0.78 µg/mL (≈ 353 µM)
- IC50 ([3]; Xanthine as the substrate): 350 µM

Structure (SMILES): O=c1cc(-c2ccc(O)cc2)oc2cc(O)cc(O)c12 [apigenin]
- IC50 (xanthine oxidase [1]; [5]): 130 µM

Structure (SMILES): CC1=CCC2C(C1)C2(C)C (stereo not shown) [3-Carene, 3-carene]
- IC50 ([3]; Hypoxanthine as the substrate): 810 µM
- activity against xanthine oxidase (in words) ([3]; Xanthine as the substrate): did not display activity

Structure (SMILES): O=c1c(O)c(-c2ccc(O)c(O)c2)oc2cc(O)cc(O)c12 [quercetin]
- Inhibition type against xanthine oxidase (xanthine oxidase [4]): mixed type

Structure (SMILES): C[C@@H]1O[C@@H](OC[C@H]2O[C@@H](Oc3c(-c4ccc(O)c(O)c4)oc4cc(O)cc(O)c4c3=O)[C@H](O)[C@@H](O)[C@@H]2O)[C@H](O)[C@H](O)[C@H]1O [rutin]
- IC50 (xanthine oxidase [1]; [5]): 99.9 µM

Structure (SMILES): COC(=O)c1cc(C(=O)O)c[nH]1 [2-metyl ester-1H-pyrrole-4-carboxilyc acid]
- IC50 xanthine oxidase inhibition (xanthine oxidase [1]; Xanthine as the substrate): 48.86 µg/mL (≈ 289 µM)

Structure (SMILES): Oc1ncnc2[nH]ncc12 [Allopurinol, reference compound]
- Inhibition type against xanthine oxidase (xanthine oxidase [4]): competitive-type inhibition
- Inhibition Type (xanthine oxidase [2]; Hypoxanthine as the substrate): Competitive
- Vmax (xanthine oxidase [2]; Hypoxanthine substrate, inhibitor 0.313 μg/mL): 0.00025
- Vmax (xanthine oxidase [2]; Hypoxanthine substrate, inhibitor 0.625 μg/mL): 0.00024
- Vmax (xanthine oxidase [2]; Hypoxanthine substrate, inhibitor 1.250 μg/mL): 0.00024
- Vmax (xanthine oxidase [2]; Hypoxanthine substrate, inhibitor 2.500 μg/mL): 0.00024
- Inhibition Type (xanthine oxidase [2]; Xanthine as the substrate): Competitive
- Vmax (xanthine oxidase [2]; Xanthine substrate, inhibitor 0.313 μg/mL): 0.00026
- Vmax (xanthine oxidase [2]; Xanthine substrate, inhibitor 0.625 μg/mL): 0.00026
- Vmax (xanthine oxidase [2]; Xanthine substrate, inhibitor 1.250 μg/mL): 0.00025
- Vmax (xanthine oxidase [2]; Xanthine substrate, inhibitor 2.500 μg/mL): 0.00026
- Inhibition type on xanthine oxidase (xanthine oxidase [2]): competitive
